Laboratory results as given in patent publication US8952024B2, “Herbicidal pyrimidone derivatives” (E I du Pont de Nemours and Company, priority 2009, dated 2015).
Like-named read-outs stand apart in the source and are kept apart here.

Legend:
Assay type in all cases: in vivo
[1] = test system: barnyardgrass (Echinochloa crus-galli); test: Test A pre-/postemergence plant response; settings: Echinochloa crus-galli, 240 h; for pest or weed control at 125 g/ha: 125 g ai/ha; for pest or weed control at 500 g/ha: 500 g ai/ha
Method in brief: (§1)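 Injury scores (0, no effect; 100, complete control) come from visual comparison with untreated controls roughly ten days post-treatment. Test chemicals in a surfactant-containing non-phytotoxic solvent were applied as a directed soil spray preemergence and to one- to two-leaf seedlings postemergence.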

corn (Zea mays) = test: Test A pre-/postemergence plant response; settings: Zea mays, 240 h; for Corn plant response rating (crop injury, 0 = no effect, 100 = complete kill) at 125 g/ha: 125 g ai/ha
Method in brief: as §1

[2] = test system: giant foxtail (Setaria faberii); test: Test A pre-/postemergence plant response; settings: Setaria faberi, 240 h; for pest or weed control at 125 g/ha: 125 g ai/ha; for pest or weed control at 500 g/ha: 500 g ai/ha
Method in brief: as §1

[3] = test system: large crabgrass (Digitaria sanguinalis); test: Test A pre-/postemergence plant response; settings: Digitaria sanguinalis, 240 h; for pest or weed control at 125 g/ha: 125 g ai/ha; for pest or weed control at 500 g/ha: 500 g ai/ha
Method in brief: as §1

[4] = test system: morningglory (Ipomoea spp.); test: Test A pre-/postemergence plant response; settings: Ipomoea, 240 h; for pest or weed control at 125 g/ha: 125 g ai/ha; for pest or weed control at 500 g/ha: 500 g ai/ha
Method in brief: as §1

[5] = test system: pigweed (Amaranthus retroflexus); test: Test A pre-/postemergence plant response; settings: Amaranthus retroflexus, 240 h; for pest or weed control at 125 g/ha: 125 g ai/ha; for pest or weed control at 500 g/ha: 500 g ai/ha
Method in brief: as §1

[6] = test system: velvetleaf (Abutilon theophrasti); test: Test A pre-/postemergence plant response; settings: Abutilon theophrasti, 240 h; for pest or weed control at 125 g/ha: 125 g ai/ha; for pest or weed control at 500 g/ha: 500 g ai/ha
Method in brief: as §1

[7] = test system: wheat (Triticum aestivum); test: Test A pre-/postemergence plant response; settings: Triticum aestivum, 240 h; for plant injury at 125 g/ha: 125 g ai/ha; for plant injury at 500 g/ha: 500 g ai/ha
Method in brief: as §1

[8] = test system: barnyardgrass (Echinochloa crus-galli); test: Test B flooded paddy test
Method in brief: (§2)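 Rice, umbrella sedge, ducksalad and barnyardgrass were grown to the 2-leaf stage, flooded to 3 cm, and compound was applied directly to the paddy water, with that depth kept throughout. After 13 to 15 days in the greenhouse, plants were visually rated against controls on a 0 (no effect) to 100 (complete control) scale.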

[9] = test system: ducksalad (Heteranthera limosa); test: Test B flooded paddy test
Method in brief: as §2

rice (Oryza sativa) = test: Test B flooded paddy test
Method in brief: as §2

[10] = test system: umbrella sedge (Cyperus difformis); test: Test B flooded paddy test
Method in brief: as §2

[11] = pre-emergence, Preemergence, 0 to 100 scale, 0 = no effect, 100 = complete control, read-out: Plant response rating, Barnyardgrass
[12] = pre-emergence, Preemergence, 0 to 100 scale, 0 = no effect, 100 = complete control, read-out: Plant response rating, Foxtail, Giant
[13] = pre-emergence, Preemergence, 0 to 100 scale, 0 = no effect, 100 = complete control, read-out: Plant response rating, Crabgrass, Large
[14] = pre-emergence, Preemergence, 0 to 100 scale, 0 = no effect, 100 = complete control, read-out: Plant response rating, Morningglory
[15] = pre-emergence, Preemergence, 0 to 100 scale, 0 = no effect, 100 = complete control, read-out: Plant response rating, Pigweed
[16] = pre-emergence, Preemergence, 0 to 100 scale, 0 = no effect, 100 = complete control, read-out: Plant response rating, Velvetleaf
[17] = pre-emergence, Preemergence, 0 to 100 scale, 0 = no effect, 100 = complete control, read-out: Plant response rating, Wheat
[18] = Flood, 31 g ai/ha, scale 0 to 100 (0 no effect, 100 complete control)

## COCCn1c(-c2cc(F)cc(F)c2)ncc(C(=O)C2=C(O)C3CCC(C3)C2=O)c1=O (stereo not drawn) [Compound 243, 2-(3,5-difluorophenyl)-5-[(2-hydroxy-4-oxobicyclo[3.2.1]oct-2-en-3-yl)carbonyl]-3-(2-methoxyethyl)-4(3H)-pyrimidinone]
[1]; post-emergence, Postemergence, 0 to 100 scale where 0 is no effect and 100 is complete control, read-out: Plant response rating, Barnyardgrass
  pest or weed control at 125 g/ha: 100%
[1]; post-emergence, Postemergence, visual injury, 0 to 100 scale (0 no effect, 100 complete control), approx. ten days, read-out: Barnyardgrass plant response rating
  pest or weed control at 500 g/ha: 100%
[1]; [11]
  pest or weed control at 125 g/ha: 70%
  pest or weed control at 500 g/ha: 100%
Corn (Zea mays); post-emergence, Postemergence, 0 to 100 scale where 0 is no effect and 100 is complete control
  Corn plant response rating (crop injury, 0 = no effect, 100 = complete kill) at 125 g/ha: 70%
Corn (Zea mays); post-emergence, Postemergence, 500 g ai/ha, visual injury, 0 to 100 scale (0 no effect, 100 complete control), approx. ten days, read-out: Corn plant response rating
  plant injury at 500 g/ha: 90%
Corn (Zea mays); pre-emergence, Preemergence, 0 to 100 scale, 0 = no effect, 100 = complete control
  Corn plant response rating (crop injury, 0 = no effect, 100 = complete kill) at 125 g/ha: 30%
Corn (Zea mays); pre-emergence, Preemergence, 500 g ai/ha, 0 to 100 scale, 0 = no effect, 100 = complete control
  Corn plant response rating (crop injury, 0 = no effect, 100 = complete kill) at 500 g/ha: 60%
[2]; post-emergence, Postemergence, 0 to 100 scale where 0 is no effect and 100 is complete control, read-out: Plant response rating, Foxtail, Giant
  pest or weed control at 125 g/ha: 100%
[2]; post-emergence, Postemergence, visual injury, 0 to 100 scale (0 no effect, 100 complete control), approx. ten days, read-out: Foxtail, Giant plant response rating
  pest or weed control at 500 g/ha: 100%
[2]; [12]
  pest or weed control at 125 g/ha: 90%
  pest or weed control at 500 g/ha: 100%
[3]; post-emergence, Postemergence, 0 to 100 scale where 0 is no effect and 100 is complete control, read-out: Plant response rating, Crabgrass, Large
  pest or weed control at 125 g/ha: 90%
[3]; post-emergence, Postemergence, visual injury, 0 to 100 scale (0 no effect, 100 complete control), approx. ten days, read-out: Crabgrass, Large plant response rating
  pest or weed control at 500 g/ha: 90%
[3]; [13]
  pest or weed control at 125 g/ha: 100%
  pest or weed control at 500 g/ha: 100%
[4]; post-emergence, Postemergence, 0 to 100 scale where 0 is no effect and 100 is complete control, read-out: Plant response rating, Morningglory
  pest or weed control at 125 g/ha: 100%
[4]; post-emergence, Postemergence, visual injury, 0 to 100 scale (0 no effect, 100 complete control), approx. ten days, read-out: Morningglory plant response rating
  pest or weed control at 500 g/ha: 100%
[4]; [14]
  pest or weed control at 125 g/ha: 70%
  pest or weed control at 500 g/ha: 90%
[5]; post-emergence, Postemergence, 0 to 100 scale where 0 is no effect and 100 is complete control, read-out: Plant response rating, Pigweed
  pest or weed control at 125 g/ha: 100%
[5]; post-emergence, Postemergence, visual injury, 0 to 100 scale (0 no effect, 100 complete control), approx. ten days, read-out: Pigweed plant response rating
  pest or weed control at 500 g/ha: 100%
[5]; [15]
  pest or weed control at 125 g/ha: 100%
  pest or weed control at 500 g/ha: 100%
[6]; post-emergence, Postemergence, 0 to 100 scale where 0 is no effect and 100 is complete control, read-out: Plant response rating, Velvetleaf
  pest or weed control at 125 g/ha: 100%
[6]; post-emergence, Postemergence, visual injury, 0 to 100 scale (0 no effect, 100 complete control), approx. ten days, read-out: Velvetleaf plant response rating
  pest or weed control at 500 g/ha: 100%
[6]; [16]
  pest or weed control at 125 g/ha: 90%
  pest or weed control at 500 g/ha: 100%
[7]; post-emergence, Postemergence, 0 to 100 scale where 0 is no effect and 100 is complete control, read-out: Plant response rating, Wheat
  plant injury at 125 g/ha: 70%
[7]; post-emergence, Postemergence, visual injury, 0 to 100 scale (0 no effect, 100 complete control), approx. ten days, read-out: Wheat plant response rating
  plant injury at 500 g/ha: 90%
[7]; [17]
  plant injury at 125 g/ha: 30%
  plant injury at 500 g/ha: 70%
[8]; Echinochloa crus-galli, 360 h, 250 g ai/ha, flooded paddy test, visual rating on 0 to 100 scale (0 no effect, 100 complete control) after 13 to 15 days, read-out: Plant response rating, Flood, Barnyardgrass
  pest or weed control at 250 g/ha: 85%
[8]; Echinochloa crus-galli, 360 h, Flood (flooded paddy test), 62 g ai/ha, scale of 0 to 100 where 0 is no effect and 100 is complete control, 13 to 15 days, read-out: Plant response rating, Barnyardgrass
  pest or weed control at 62 g/ha: 30%
[8]; Echinochloa crus-galli, 360 h, Flood (flooded paddy test), 125 g ai/ha, scale 0 to 100, 0 is no effect, 100 is complete control, 13 to 15 days, read-out: Plant response rating, Barnyardgrass
  pest or weed control at 125 g/ha: 75%
[8]; [18]
  Barnyardgrass plant response rating: 0
[9]; [18]
  Ducksalad plant response rating: 0
[9]; Heteranthera limosa, 360 h, 250 g ai/ha, flooded paddy test, visual rating on 0 to 100 scale (0 no effect, 100 complete control) after 13 to 15 days, read-out: Plant response rating, Flood, Ducksalad
  pest or weed control at 250 g/ha: 100%
[9]; Heteranthera limosa, 360 h, Flood (flooded paddy test), 62 g ai/ha, scale of 0 to 100 where 0 is no effect and 100 is complete control, 13 to 15 days, read-out: Plant response rating, Ducksalad
  pest or weed control at 62 g/ha: 85%
[9]; Heteranthera limosa, 360 h, Flood (flooded paddy test), 125 g ai/ha, scale 0 to 100, 0 is no effect, 100 is complete control, 13 to 15 days, read-out: Plant response rating, Ducksalad
  pest or weed control at 125 g/ha: 100%
Rice (Oryza sativa); [18]
  Rice plant response rating: 45
Rice (Oryza sativa); Oryza sativa, 250 g ai/ha, flooded paddy test, visual rating on 0 to 100 scale (0 no effect, 100 complete control) after 13 to 15 days, read-out: Plant response rating, Flood, Rice
  plant injury at 250 g/ha: 75%
Rice (Oryza sativa); Oryza sativa, Flood (flooded paddy test), 62 g ai/ha, scale of 0 to 100 where 0 is no effect and 100 is complete control, 13 to 15 days, read-out: Plant response rating, Rice
  plant injury at 62 g/ha: 60%
Rice (Oryza sativa); Oryza sativa, Flood (flooded paddy test), 125 g ai/ha, scale 0 to 100, 0 is no effect, 100 is complete control, 13 to 15 days, read-out: Plant response rating, Rice
  plant injury at 125 g/ha: 95%
[10]; Cyperus difformis, 360 h, 250 g ai/ha, flooded paddy test, visual rating on 0 to 100 scale (0 no effect, 100 complete control) after 13 to 15 days, read-out: Plant response rating, Flood, Sedge, Umbrella
  pest or weed control at 250 g/ha: 100%
[10]; Cyperus difformis, 360 h, Flood (flooded paddy test), 62 g ai/ha, scale of 0 to 100 where 0 is no effect and 100 is complete control, 13 to 15 days, read-out: Plant response rating, Sedge, Umbrella
  pest or weed control at 62 g/ha: 90%
[10]; Cyperus difformis, 360 h, Flood (flooded paddy test), 125 g ai/ha, scale 0 to 100, 0 is no effect, 100 is complete control, 13 to 15 days, read-out: Plant response rating, Sedge, Umbrella
  pest or weed control at 125 g/ha: 100%
[10]; [18]
  Sedge, Umbrella plant response rating: 0
